According to patent publication US20140255361A1, “ESTROGEN-RECEPTOR BASED LIGAND SYSTEM FOR REGULATING PROTEIN STABILITY” (The Board of Trustees Of The Leland Stanford Junior …, priority 2013, published 2014):
Positions count from the first letter of the chain named. Read-outs that look alike come from different tables or passages of the source.

Assays:
GFP-ERLID fusion protein = molecular target: T1, GFP-ERLID fusion protein (Homo sapiens, UniProt P03372)
T1 sequence (P03372 with tags, fused parts or gaps): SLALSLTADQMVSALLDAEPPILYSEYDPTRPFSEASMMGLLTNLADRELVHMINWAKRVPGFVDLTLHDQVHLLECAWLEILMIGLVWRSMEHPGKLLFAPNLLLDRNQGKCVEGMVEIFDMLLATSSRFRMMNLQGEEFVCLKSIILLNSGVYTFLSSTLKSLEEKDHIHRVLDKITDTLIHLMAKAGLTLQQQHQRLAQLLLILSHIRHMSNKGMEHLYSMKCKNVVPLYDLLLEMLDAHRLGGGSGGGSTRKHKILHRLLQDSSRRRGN

HA-hUBC13-ERLID = HA-hUBC13-ERLID (Homo sapiens, UniProt P03372)
HA-Bax-ERLID = HA-Bax-ERLID (Homo sapiens, UniProt P03372)
HA-hRPA2-ERLID = HA-hRPA2-ERLID (Homo sapiens, UniProt P03372)
GFP-ERLID = GFP-ERLID (Homo sapiens, UniProt P03372)
[1] = molecular target: T2, four point mutant of the estrogen receptor ligand binding domain (L384M, M421G, G521R and Y437S) fused to GFP (Homo sapiens, UniProt P03372, G521R/L384M/M421G/Y537S); details: cross-hatched bars, FIG. 7A
T2 sequence (P03372 with tags, fused parts or gaps L384M/M421G/G521R/Y537S): T1 sequence (P03372 with tags, fused parts or gaps) with L80M, M117G, G217R, Y233S

[2] = molecular target: T3, estrogen receptor ligand binding domain mutants (four and six mutations) (Homo sapiens, UniProt P03372, G521R/L384M/M421G/N519S/T371A/Y537S); assay: Drug-dependent stability of ERLBD mutant clones with YFP or GFP reporter; type: cell-based; details: relative to the parent ESR1 sequence
T3 construct: residues 305-549 of estrogen receptor-1, ERS1; YFP or GFP reporter
T3 sequence (P03372 305-549 T371A/L384M/M421G/N519S/G521R/Y537S): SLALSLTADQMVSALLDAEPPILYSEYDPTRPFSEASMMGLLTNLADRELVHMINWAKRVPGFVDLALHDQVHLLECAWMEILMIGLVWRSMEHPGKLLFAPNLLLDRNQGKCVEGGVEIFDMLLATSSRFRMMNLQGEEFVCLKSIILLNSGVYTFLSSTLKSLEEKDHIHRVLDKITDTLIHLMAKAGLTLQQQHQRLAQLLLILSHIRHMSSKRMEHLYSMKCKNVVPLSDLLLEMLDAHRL

wild-type ER LBDs = details: cited from earlier work
[3] = test system: YFP-FKBP12 LID domain fusion protein; assay: FACS screen of YFP fused to extended FKBP12 (LID domain) in NIH3T3 cells; type: cell-based, mouse
Description: Human […] protein was modified to include a 19-residue peptide extension at the C-terminus of the FKBP12 protein. Genetic diversity was engineered into this C-terminal extension using synthetic oligonucleotides and PCR, and this library of extended FKBP genes was fused to the 3′-end of the YFP gene. A library of plasmids was stably introduced into NIH3T3 cells using retrovirus, and FACS was used to screen the transduced cells for cells expressing YFP in the absence of the small molecule ligand Shield-1. […] This domain is identified herein by SEQ ID NO: 1.

GFP-LID #15 = assay: Stability of GFP-LID #15 fusion protein by flow cytometry (MFI) in NIH3T3 cells; type: cell-based; details: 1 μM Shield-1, 24 hours, FIG. 2
Description: (§1) In studies conducted in support of the invention, and with reference to the Materials and Methods set forth in the Examples section below, the stabilities of two LID domain fusion proteins, a first generation construct based on the FKBP protein, here called “GFP-LID” and a next-generation construct having improved characteristics, here called “GFP-LID #15” were compared. […] For this study, NIH3T3 fibroblast cells were infected with retrovirus expressing GFP-LID or GFP-LID #15. Transduced NIH3T3 cells were treated with or without 1 μM Shield-1 for 24 hours. The fluorescence intensities of these GFP fusions were analyzed by flow cytometry. The median fluorescence intensity (MFI) was used to determine the stability of the GFP fusion proteins.
(§2) The INX ecotropic packaging cell line was transfected using standard Lipofectamine 2000 protocols. Viral supernatants were harvested 48 h post-transfection, filtered. NIH3T3 cells were incubated with the retroviral supernatants supplemented with 4 μg/ml polybrene for 4 h at 37° C. Cells were washed once with PBS and cultured in growth media for 48 hrs to allow for viral integration, then assayed as described.
(§3) Twenty-four hours prior to analysis, transduced NIH3T3 cells were plated at 1×10^5 cells per well of a 12-well plate. […] Cells were analyzed at the Stanford Shared FACS Facility using Vantoo or LSRII with 10,000 events represented.

GFP-LID = assay: Stability of GFP-LID fusion protein by flow cytometry (MFI) in NIH3T3 cells; type: cell-based; details: 1 μM Shield-1, 24 hours, FIG. 2
Description: as §1, §2, §3

[4] = SEQ ID NO: 3 fused to GFP, open bars, FIG. 7A

Compound: 4-hydroxytamoxifen [4-OHT]
- stability of GFP-ERLBD (MFI) as a function of amount of ligand (GFP-ERLID fusion protein): dose dependent destabilization
- stability of GFP-ERLID fusion protein (MFI) (GFP-ERLID fusion protein): induces degradation
- stability of fusion protein (MFI) after E2 washout with 4-hydroxytamoxifen in the wash solution (E2 wo+4OHT) (GFP-ERLID fusion protein): destabilizes
- stability of fusion protein (MFI) after ligand exposure (GFP-ERLID fusion protein): destabilizes
- stability of wild type GFP-ERLID fusion protein (MFI) (GFP-ERLID fusion protein): destabilization
- level of fusion protein by Western blot (HA-hUBC13-ERLID): destabilized
- level of fusion protein by Western blot (HA-Bax-ERLID): destabilized
- level of fusion protein by Western blot (HA-hRPA2-ERLID): destabilized
- level of fusion protein by Western blot (GFP-ERLID): destabilized
- stability of mutant fusion protein (MFI) [1]: destabilization

Compound: O=C1CCC2(Cc3ccc(Cl)cc3)Cc3cc(O)ccc3C2=C1c1ccc(OCCN2CCCCC2)cc1 (stereo not shown) [CMP8, 9a-(4-Chlorobenzyl)-7-hydroxy-4-[4-(2-piperidin-1-ylethoxy)phenyl]-1,2,9,9a-tetrahydro-3H-fluoren-3-one]
- dynamic range of stability in the presence of ligand [2]: large dynamic
- stability of wild type GFP-ERLID fusion protein (MFI) (GFP-ERLID fusion protein; [4]): destabilization
- stability of mutant fusion protein (MFI) [1]: destabilization
- binding to wild-type ER LBDs (wild-type ER LBDs): does not bind well

Compound: CC[C@H](C(=O)N1CCCC[C@H]1C(=O)O[C@H](CCc1ccc(OC)c(OC)c1)c1cccc(OCCN2CCOCC2)c1)c1cc(OC)c(OC)c(OC)c1 [Shield-1]
- YFP levels on addition of ligand [3]: dropped significantly
- stability of GFP fusion protein (median fluorescence intensity) (GFP-LID #15): destabilized
- stability of GFP fusion protein (median fluorescence intensity) (GFP-LID): destabilized

Compound: C[C@]12CC[C@@H]3c4ccc(O)cc4C[C@@H](CCCCCCCCC[S+]([O-])CCCC(F)(F)C(F)(F)F)[C@H]3[C@@H]1CC[C@@H]2O (stereo partly shown) [fulvestrant]
- stability of GFP-ERLID fusion protein (GFP-ERLID fusion protein; 10 μM fulvestrant, NIH3T3 cells, FIG. 4): induced degradation
- stability of wild type GFP-ERLID fusion protein (MFI) (GFP-ERLID fusion protein; [4]): destabilization
